PMC5218480 (PLoS ONE, 2017)

System: MV-4-11 cells
Assay: Gene expression microarray analysis (Affymetrix PrimeView) and GSEA
Type: cell-based, human
Design: RFU PODN (11730768_x_at) / Fold change /veh PODN (11730768_x_at) / RFU LINC00158 (11744669_a_at) / Fold change /veh LINC00158 (11744669_a_at) / RFU DUSP10 (11751237_a_at) / Fold change /veh DUSP10 (11751237_a_at) / RFU ID3 (11757404_x_at) / Fold change /veh ID3 (11757404_x_at) / RFU PLEKHG5 (11737974_s_at) / Fold change /veh PLEKHG5 (11737974_s_at) / RFU LRRC4B (11730491_at) / Fold change /veh LRRC4B (11730491_at) / RFU GIMAP4 (11747438_a_at) / Fold change /veh GIMAP4 (11747438_a_at) / RFU KRT8 (11758183_x_at) / Fold change /veh KRT8 (11758183_x_at) / RFU CNN1 (11734310_a_at) / Fold change /veh CNN1 (11734310_a_at) / RFU VPS37D (11726825_at) / Fold change /veh VPS37D (11726825_at) / RFU C10orf10 (11716522_x_at) / Fold change /veh C10orf10 (11716522_x_at) / RFU KIR2DL2 /// KIR2DL4 /// KIR2DL5A /// KIR2DL5B /// KIR2DS1 /// KIR2DS2 /// KIR2DS3 /// KIR2DS4 /// KIR3DL3 /// KIR3DL3 /// KIR3DS1 (11738374_at) / Fold change /veh KIR2DL2 /// KIR2DL4 /// KIR2DL5A /// KIR2DL5B /// KIR2DS1 /// KIR2DS2 /// KIR2DS3 /// KIR2DS4 /// KIR3DL3 /// KIR3DL3 /// KIR3DS1 (11738374_at) / RFU C1QL1 (11718748_at) / Fold change /veh C1QL1 (11718748_at) / RFU TMPRSS4 (11747572_a_at) / Fold change /veh TMPRSS4 (11747572_a_at) / RFU HAMP (11756126_x_at) / Fold change /veh HAMP (11756126_x_at) / RFU RNFT2 (11725882_a_at) / Fold change /veh RNFT2 (11725882_a_at) / RFU NR4A2 (11747474_a_at) / Fold change /veh NR4A2 (11747474_a_at) / RFU ABCC12 (11746883_a_at) / Fold change /veh ABCC12 (11746883_a_at) / RFU TMEM136 (11760407_x_at) / Fold change /veh TMEM136 (11760407_x_at) / RFU CLDN22 /// WWC2 (11732394_at) / Fold change /veh CLDN22 /// WWC2 (11732394_at) / RFU HLA-DPB1 (11760878_x_at) / Fold change /veh HLA-DPB1 (11760878_x_at) / RFU SPINT1 (11716480_a_at) / Fold change /veh SPINT1 (11716480_a_at) / RFU GAP43 (11754022_s_at) / Fold change /veh GAP43 (11754022_s_at) / RFU A4GNT (11735810_at) / Fold change /veh A4GNT (11735810_at) / RFU PRB3 (11715151_x_at) / Fold change /veh PRB3 (11715151_x_at) / RFU TUBB4B (11761932_at) / Fold change /veh TUBB4B (11761932_at) / RFU CAPN14 (11732068_a_at) / Fold change /veh CAPN14 (11732068_a_at) / RFU TMCC2 (11721928_a_at) / Fold change /veh TMCC2 (11721928_a_at) / RFU IRGQ (11745062_a_at) / Fold change /veh IRGQ (11745062_a_at) / RFU FAM174B (11720279_a_at) / Fold change /veh FAM174B (11720279_a_at) / RFU TMPRSS4 (11748680_a_at) / Fold change /veh TMPRSS4 (11748680_a_at) / RFU FAM212B (11763350_a_at) / Fold change /veh FAM212B (11763350_a_at) / RFU PLEKHG5 (11743358_a_at) / Fold change /veh PLEKHG5 (11743358_a_at) / RFU ZSCAN30 (11745921_a_at) / Fold change /veh ZSCAN30 (11745921_a_at) / RFU CMKLR1 (11741424_a_at) / Fold change /veh CMKLR1 (11741424_a_at) / RFU LOC101060620 /// MAPK8IP1 (11723275_at) / Fold change /veh LOC101060620 /// MAPK8IP1 (11723275_at) / RFU SPTSSB (11747773_x_at) / Fold change /veh SPTSSB (11747773_x_at) / RFU PRSS12 (11739890_at) / Fold change /veh PRSS12 (11739890_at) / RFU BIN1 (11741810_x_at) / Fold change /veh BIN1 (11741810_x_at) / RFU WNT11 (11732464_a_at) / Fold change /veh WNT11 (11732464_a_at) / RFU C10orf10 (11716521_a_at) / Fold change /veh C10orf10 (11716521_a_at) / RFU C5orf56 (11738089_at) / Fold change /veh C5orf56 (11738089_at) / RFU CYB561 (11721691_x_at) / Fold change /veh CYB561 (11721691_x_at) / RFU ANKRD19P (11752326_a_at) / Fold change /veh ANKRD19P (11752326_a_at) / RFU OR2T12 /// OR2T33 /// OR2T8 (11738714_s_at) / Fold change /veh OR2T12 /// OR2T33 /// OR2T8 (11738714_s_at) / RFU VCAN (11748164_a_at) / Fold change /veh VCAN (11748164_a_at) / RFU JSRP1 (11732532_at) / Fold change /veh JSRP1 (11732532_at) / RFU KRTAP10-11 (11738290_x_at) / Fold change /veh KRTAP10-11 (11738290_x_at) / RFU MYO3A (11730013_a_at) / Fold change /veh MYO3A (11730013_a_at) / RFU EBF3 (11725865_a_at) / Fold change /veh EBF3 (11725865_a_at) / RFU CAMK2N1 (11719241_x_at) / Fold change /veh CAMK2N1 (11719241_x_at) / RFU C5orf56 (11738088_a_at) / Fold change /veh C5orf56 (11738088_a_at) / RFU OLFML3 (11715873_a_at) / Fold change /veh OLFML3 (11715873_a_at) / RFU LOC100653217 /// NTM (11731650_a_at) / Fold change /veh LOC100653217 /// NTM (11731650_a_at) / RFU MAPK11 (11762145_a_at) / Fold change /veh MAPK11 (11762145_a_at) / RFU FIZ1 (11724087_x_at) / Fold change /veh FIZ1 (11724087_x_at) / RFU OASL (11726364_x_at) / Fold change /veh OASL (11726364_x_at) / RFU SOX15 (11748057_x_at) / Fold change /veh SOX15 (11748057_x_at) / RFU CD79A (11719716_a_at) / Fold change /veh CD79A (11719716_a_at) / RFU HIST1H1D (11736915_at) / Fold change /veh HIST1H1D (11736915_at) / RFU CASKIN2 (11723855_a_at) / Fold change /veh CASKIN2 (11723855_a_at) / RFU LOC730098 (11760151_x_at) / Fold change /veh LOC730098 (11760151_x_at) / RFU OR4N2 (11742367_at) / Fold change /veh OR4N2 (11742367_at) / RFU PRRT2 (11749266_a_at) / Fold change /veh PRRT2 (11749266_a_at) / RFU SNX32 (11753110_a_at) / Fold change /veh SNX32 (11753110_a_at) / RFU CDHR5 (11726645_a_at) / Fold change /veh CDHR5 (11726645_a_at) / RFU RCAN1 (11760418_a_at) / Fold change /veh RCAN1 (11760418_a_at) / RFU FAM167A (11723789_a_at) / Fold change /veh FAM167A (11723789_a_at) / RFU FAM26E (11764081_at) / Fold change /veh FAM26E (11764081_at) / RFU ISYNA1 (11749810_s_at) / Fold change /veh ISYNA1 (11749810_s_at) / RFU ACY1 (11761880_at) / Fold change /veh ACY1 (11761880_at) / RFU 11764098_at / Fold change /veh 11764098_at / RFU SAMD14 (11745864_x_at) / Fold change /veh SAMD14 (11745864_x_at) / RFU NPB (11741838_a_at) / Fold change /veh NPB (11741838_a_at) / RFU TMPRSS6 (11731388_a_at) / Fold change /veh TMPRSS6 (11731388_a_at) / RFU KRTAP10-2 (11738614_at) / Fold change /veh KRTAP10-2 (11738614_at) / RFU ARHGAP8 /// PRR5-ARHGAP8 (11727945_x_at) / Fold change /veh ARHGAP8 /// PRR5-ARHGAP8 (11727945_x_at) / RFU KRTAP5-7 /// NADSYN1 (11734609_at) / Fold change /veh KRTAP5-7 /// NADSYN1 (11734609_at) / RFU RASL12 (11751679_a_at) / Fold change /veh RASL12 (11751679_a_at) / RFU CDKN2B (11736163_a_at) / Fold change /veh CDKN2B (11736163_a_at) / RFU PRF1 (11729649_at) / Fold change /veh PRF1 (11729649_at) / RFU, ZNF638 /// ZNF638-IT1 / Fold change vs veh, ZNF638 /// ZNF638-IT1 / RFU, PANK3 / Fold change vs veh, PANK3 / RFU, SH3YL1 / Fold change vs veh, SH3YL1 / RFU, ZEB2 / Fold change vs veh, ZEB2 / RFU, NRIP1 / Fold change vs veh, NRIP1 / RFU, PTTG1IP / Fold change vs veh, PTTG1IP / RFU, CAPN2 / Fold change vs veh, CAPN2 / RFU, MED14 / Fold change vs veh, MED14 / RFU, SNORA58 / Fold change vs veh, SNORA58 / RFU, C1orf63 / Fold change vs veh, C1orf63 / RFU, LRRFIP1 / Fold change vs veh, LRRFIP1 / RFU, NDUFAF7 / Fold change vs veh, NDUFAF7 / RFU, SLC12A2 / Fold change vs veh, SLC12A2 / RFU, IBTK / Fold change vs veh, IBTK / RFU, ESF1 / Fold change vs veh, ESF1 / Fold change vs veh, TMEM50B / RFU, TAOK1 / Fold change vs veh, TAOK1 / RFU, ACBD3 / Fold change vs veh, ACBD3 / RFU, TMA16 / Fold change vs veh, TMA16 / RFU, RWDD3 / Fold change vs veh, RWDD3 / RFU, BCAT1 / Fold change vs veh, BCAT1 / RFU, EDEM3 / Fold change vs veh, EDEM3 / RFU, TMEM33 / Fold change vs veh, TMEM33 / RFU, WDR75 / Fold change vs veh, WDR75 / RFU, AHCTF1 / Fold change vs veh, AHCTF1 / RFU, TFRC / Fold change vs veh, TFRC / RFU, ZDHHC17 / Fold change vs veh, ZDHHC17 / RFU, NOM1 / Fold change vs veh, NOM1 / RFU, ARL8B / Fold change vs veh, ARL8B / RFU, ZBTB11 / Fold change vs veh, ZBTB11 / RFU, TAMM41 / Fold change vs veh, TAMM41 / RFU, KIAA1704 /// LOC100996395 / Fold change vs veh, KIAA1704 /// LOC100996395 / RFU, ING1 / Fold change vs veh, ING1 / RFU, TRMT61B / Fold change vs veh, TRMT61B / RFU, FUBP3 / Fold change vs veh, FUBP3 / RFU, TP53 / Fold change vs veh, TP53 / RFU, TNKS2 / Fold change vs veh, TNKS2 / RFU, ZFP14 / Fold change vs veh, ZFP14 / RFU, ACTR2 / Fold change vs veh, ACTR2 / RFU, PPP3R1 / Fold change vs veh, PPP3R1 / RFU, PIK3R1 / Fold change vs veh, PIK3R1 / RFU, HNRNPA1 / Fold change vs veh, HNRNPA1 / RFU, RNF170 / Fold change vs veh, RNF170 / RFU, ZNF28 / Fold change vs veh, ZNF28 / RFU, RNGTT / Fold change vs veh, RNGTT / RFU, OGT / Fold change vs veh, OGT / RFU, BRD1 / Fold change vs veh, BRD1 / RFU, MARS / Fold change vs veh, MARS / RFU, ZNF655 / Fold change vs veh, ZNF655 / RFU, FAHD1 / Fold change vs veh, FAHD1 / RFU, BDP1 / Fold change vs veh, BDP1 / RFU, LRRCC1 / Fold change vs veh, LRRCC1 / RFU, ARID1A / Fold change vs veh, ARID1A / RFU, ZNF146 / Fold change vs veh, ZNF146 / RFU, ZNF330 / Fold change vs veh, ZNF330 / RFU, GPN3 / Fold change vs veh, GPN3 / RFU, C9orf123 / Fold change vs veh, C9orf123 / RFU, N4BP2L2 / Fold change vs veh, N4BP2L2 / RFU, ARFIP1 / Fold change vs veh, ARFIP1 / RFU, FAM179B / Fold change vs veh, FAM179B / RFU, BCL10 / Fold change vs veh, BCL10 / RFU, UHRF1BP1L / Fold change vs veh, UHRF1BP1L / RFU, BET1 / Fold change vs veh, BET1 / RFU, CNOT2 / Fold change vs veh, CNOT2 / RFU, ZNF268 / Fold change vs veh, ZNF268 / Fold change vs veh, ZNF507 / RFU, DGCR2 / Fold change vs veh, DGCR2 / RFU, WDSUB1 / Fold change vs veh, WDSUB1 / Fold change vs veh, HSP90B1 /// MIR3652 / RFU, ADSS / Fold change vs veh, ADSS / RFU, GK / Fold change vs veh, GK / RFU, ZNF148 / Fold change vs veh, ZNF148 / RFU, TAF9 / Fold change vs veh, TAF9 / RFU, SLC1A5 / Fold change vs veh, SLC1A5 / RFU, SLMO2 / Fold change vs veh, SLMO2 / RFU, ABCC4 / Fold change vs veh, ABCC4 / RFU, LOC101060439 /// RAP1B / Fold change vs veh, LOC101060439 /// RAP1B / RFU, RFX7 / Fold change vs veh, RFX7 / RFU, GTPBP10 / Fold change vs veh, GTPBP10 / RFU, CNEP1R1 / Fold change vs veh, CNEP1R1 / RFU, BIVM-ERCC5 /// ERCC5 / Fold change vs veh, BIVM-ERCC5 /// ERCC5 / RFU, ILF3 / Fold change vs veh, ILF3 / RFU 11762660_at / Fold change /veh 11762660_at / RFU VCAN (11757783_s_at) / Fold change /veh VCAN (11757783_s_at) / RFU DDX43 (11728927_at) / Fold change /veh DDX43 (11728927_at) / RFU KRT8 (11758188_x_at) / Fold change /veh KRT8 (11758188_x_at) / RFU NKD1 (11759106_at) / Fold change /veh NKD1 (11759106_at) / RFU SRD5A1 (11742802_a_at) / Fold change /veh SRD5A1 (11742802_a_at) / RFU TPSAB1 /// TPSB2 (11721975_s_at) / Fold change /veh TPSAB1 /// TPSB2 (11721975_s_at) / RFU GSTM3 (11746129_a_at) / Fold change /veh GSTM3 (11746129_a_at) / RFU IL23R (11737362_x_at) / Fold change /veh IL23R (11737362_x_at) / RFU TMEM51 (11727254_a_at) / Fold change /veh TMEM51 (11727254_a_at) / RFU PIWIL2 (11732686_x_at) / Fold change /veh PIWIL2 (11732686_x_at) / RFU ORM1 (11744905_x_at) / Fold change /veh ORM1 (11744905_x_at) / RFU CCDC152 (11743942_at) / Fold change /veh CCDC152 (11743942_at) / RFU ECM1 (11717891_a_at) / Fold change /veh ECM1 (11717891_a_at) / RFU IL23R (11748794_a_at) / Fold change /veh IL23R (11748794_a_at) / RFU TNFAIP8L3 (11732012_x_at) / Fold change /veh TNFAIP8L3 (11732012_x_at) / RFU MBOAT4 (11741988_at) / Fold change /veh MBOAT4 (11741988_at) / RFU 11764193_at / Fold change /veh 11764193_at / RFU TMEM53 (11763286_at) / Fold change /veh TMEM53 (11763286_at) / RFU MAGEB2 (11727129_at) / Fold change /veh MAGEB2 (11727129_at) / RFU TMEM200A (11744735_a_at) / Fold change /veh TMEM200A (11744735_a_at) / RFU CCDC152 (11751479_a_at) / Fold change /veh CCDC152 (11751479_a_at) / RFU FAM211A (11726209_a_at) / Fold change /veh FAM211A (11726209_a_at) / RFU RGS16 (11746705_a_at) / Fold change /veh RGS16 (11746705_a_at) / RFU VCAN (11755009_s_at) / Fold change /veh VCAN (11755009_s_at) / RFU RHOB (11743442_s_at) / Fold change /veh RHOB (11743442_s_at) / RFU RGS16 (11720943_a_at) / Fold change /veh RGS16 (11720943_a_at) / RFU RGS16 (11720944_at) / Fold change /veh RGS16 (11720944_at) / RFU, VPS4B / Fold change vs veh, VPS4B / RFU, CREB1 / Fold change vs veh, CREB1 / RFU, DNAJC13 / Fold change vs veh, DNAJC13 / RFU, GNAQ / Fold change vs veh, GNAQ / RFU, CDK5R1 / Fold change vs veh, CDK5R1 / RFU, ZRANB3 / Fold change vs veh, ZRANB3 / RFU, CUL4A / Fold change vs veh, CUL4A / RFU, CCNY / Fold change vs veh, CCNY / RFU, UFL1 / Fold change vs veh, UFL1 / RFU, COG3 / Fold change vs veh, COG3 / RFU, DIAPH2 / Fold change vs veh, DIAPH2 / RFU, SKA2 / Fold change vs veh, SKA2 / RFU, AFF3 / Fold change vs veh, AFF3 / RFU, LMF1 / Fold change vs veh, LMF1 / RFU, IPO11 / Fold change vs veh, IPO11 / RFU, DFFB / Fold change vs veh, DFFB / RFU, FOXP1 / Fold change vs veh, FOXP1 / RFU, CARD8 / Fold change vs veh, CARD8 / RFU, STRN3 / Fold change vs veh, STRN3 / RFU, ADK / Fold change vs veh, ADK / RFU, RASSF2 / Fold change vs veh, RASSF2 / RFU, WIPF1 / Fold change vs veh, WIPF1 / RFU, LARP1B / Fold change vs veh, LARP1B / RFU, RASA1 / Fold change vs veh, RASA1 / RFU, RB1 / Fold change vs veh, RB1 / RFU, PPFIA1 / Fold change vs veh, PPFIA1 / RFU, MAT2A / Fold change vs veh, MAT2A / RFU, CCT5 / Fold change vs veh, CCT5 / RFU, WDR92 / Fold change vs veh, WDR92 / RFU, CUX1 / Fold change vs veh, CUX1 / RFU, TTC7A / Fold change vs veh, TTC7A / RFU, TMEM135 / Fold change vs veh, TMEM135 / RFU, DEPTOR / Fold change vs veh, DEPTOR / RFU, CPM / Fold change vs veh, CPM / RFU, DNAJB6 / Fold change vs veh, DNAJB6 / RFU, CACNA2D3 / Fold change vs veh, CACNA2D3 / RFU, DTX4 / Fold change vs veh, DTX4 / RFU, TFCP2 / Fold change vs veh, TFCP2 / RFU, GMCL1 /// GMCL1P1 / Fold change vs veh, GMCL1 /// GMCL1P1 / RFU, AEBP2 / Fold change vs veh, AEBP2 / RFU, SNHG1 /// SNORD22 /// SNORD25 /// SNORD26 /// SNORD27 /// SNORD28 /// SNORD29 /// SNORD31 / Fold change vs veh, SNHG1 /// SNORD22 /// SNORD25 /// SNORD26 /// SNORD27 /// SNORD28 /// SNORD29 /// SNORD31 / Fold change (Aza/veh), C12orf56 (ProbeSet 11735607_a_at) / Fold change (ACY-1035/veh), C12orf56 (ProbeSet 11735607_a_at) / Fold change (Aza/veh), FGFR1OP (ProbeSet 11751329_s_at) / Fold change (ACY-1035/veh), FGFR1OP (ProbeSet 11751329_s_at) / Fold change (Aza/veh), VPS36 (ProbeSet 11739960_a_at) / Fold change (ACY-1035/veh), VPS36 (ProbeSet 11739960_a_at) / RFU SYPL1 (11715823_x_at) / Fold change /veh SYPL1 (11715823_x_at) / RFU IGFBP7 (11715501_s_at) / Fold change /veh IGFBP7 (11715501_s_at) / RFU REEP3 (11722064_at) / Fold change /veh REEP3 (11722064_at) / RFU IGLL1 (11728026_x_at) / Fold change /veh IGLL1 (11728026_x_at): dose or concentration left out as unconfirmed
Conditions: MV-4-11 cells, 48 hours

**Q.** Which “RFU PLEKHG5 (11743358_a_at)” value does the source give for `Nc1ncn([C@@H]2O[C@H](CO)[C@@H](O)[C@H]2O)c(=O)n1` [azacitidine] here?
**A.** Its value is 38.46 RFU.
